A short description of series [1]: Saturated solubility of the main drug in different media. Type of series: physicochemical. Conditions: for solubility at 72 h: thermodynamic from solid, 37° C. The protocol: The solubility of the main drug (5-nitro-8-hydroxyquinoline L-lysinate monohydrate) is greatly affected by pH. In order to select a suitable dissolution medium to achieve the sink condition, the saturated solubility of the main drug in water, pH 1.0 hydrochloric acid solution, pH 4.0 buffer (solution A: water was added to 21 g of citric acid or 19.2 g of anhydrous citric acid to obtain a 1000 mL solution, which was then stored in a refrigerator; solution B: water was added to 71.63 g of disodium hydrogen phosphate to obtain a 1000 mL solution; 61.45 mL of solution A and 38.55 mL of solution B were mixed and shaked well to obtain the pH 4.0 buffer) and pH 6.8 PBS buffer (118 mL of 0.2 mol/L sodium hydroxide solution was added to 250 mL of 0.2 mol/L phosphoric acid solution, the resulting solution was diluted with water to 1000 mL and shaked well to obtain the pH 6.8 PBS buffer) were investigated. The specific method: excessive main drug (about 1.5 g) was added to 10 mL of the above four media, respectively; the resulting mixture was placed in a SHA-B multifunctional water bath constant temperature shaker (manufacturer: Zenith Lab (Jiangsu) Co., Ltd.) at water bath temperature of 37° C. and shaked at a speed of 280 rpm for 72 hours; the solution was filtered through a 0.45 μm nitrocellulose membrane (manufacturer: Tianjin Jinteng Experimental Equipment Co., Ltd.); and the filtrate was measured with a UV-2700 ultraviolet-visible spectrophotometer (manufacturer: Shimadzu, Japan), detection wavelength: 369 nm.

The conditions of series [2]: compared with nitroxoline; in words; cited from earlier work.

The structures appear in SMILES notation.

Regarding `O=[N+]([O-])c1ccc(O)c2ncccc12` [main drug, 5-nitro-8-hydroxyquinoline L-lysinate monohydrate], the “Whether the sink condition was achieved” value is on record as “Yes” in series [1] (Water), “Yes” in series [1] (pH 1.0 hydrochloric acid solution), “No” in series [1] (pH 4.0 buffer) and “Yes” in series [1] (pH 6.8 PBS buffer). Moreover, the solubility at 72 h is 15700 µg/mL in series [1] (aqueous buffer, pH 6.8 PBS buffer); 430 µg/mL in series [1] (pH 4.0 buffer (citric acid / disodium hydrogen phosphate), aqueous buffer, pH 4.0 buffer); 1540 µg/mL in series [1] (simulated gastric fluid, pH 1.0 hydrochloric acid solution); 100000 µg/mL in series [1] (Water).
Regarding `O=[N+]([O-])c1ccc(O)c2ncccc12` [nitroxoline lysinate], the water solubility result in series [2] is given as “better than that of nitroxoline”.

The values are drawn from patent publication US12653818B2, “Pharmaceutical compositions comprising nitroxoline lysinate, preparation method therefor and use thereof” (Jiangsu Yahong Meditech Co., Ltd., priority 2020, dated 2026).
